In patent US20140051679A1, “KINASE INHIBITORS AND METHOD OF TREATING CANCER WITH SAME” (UNIVERISTY HEALTH NETWORKS, priority 2011, published 2014):

Legend:
human TTK = molecular target: T1, human TTK (Homo sapiens, UniProt P33981); assay: TTK inhibition assay (indirect ELISA); assay type: biochemical; details: GST-TTK 0.68 nM, 16 μM ATP; read-out: IC50 Ranges TTK
T1 construct: amino terminal GST fusion of full length human TTK; purchased Invitrogen
T1 sequence (P33981 1-857): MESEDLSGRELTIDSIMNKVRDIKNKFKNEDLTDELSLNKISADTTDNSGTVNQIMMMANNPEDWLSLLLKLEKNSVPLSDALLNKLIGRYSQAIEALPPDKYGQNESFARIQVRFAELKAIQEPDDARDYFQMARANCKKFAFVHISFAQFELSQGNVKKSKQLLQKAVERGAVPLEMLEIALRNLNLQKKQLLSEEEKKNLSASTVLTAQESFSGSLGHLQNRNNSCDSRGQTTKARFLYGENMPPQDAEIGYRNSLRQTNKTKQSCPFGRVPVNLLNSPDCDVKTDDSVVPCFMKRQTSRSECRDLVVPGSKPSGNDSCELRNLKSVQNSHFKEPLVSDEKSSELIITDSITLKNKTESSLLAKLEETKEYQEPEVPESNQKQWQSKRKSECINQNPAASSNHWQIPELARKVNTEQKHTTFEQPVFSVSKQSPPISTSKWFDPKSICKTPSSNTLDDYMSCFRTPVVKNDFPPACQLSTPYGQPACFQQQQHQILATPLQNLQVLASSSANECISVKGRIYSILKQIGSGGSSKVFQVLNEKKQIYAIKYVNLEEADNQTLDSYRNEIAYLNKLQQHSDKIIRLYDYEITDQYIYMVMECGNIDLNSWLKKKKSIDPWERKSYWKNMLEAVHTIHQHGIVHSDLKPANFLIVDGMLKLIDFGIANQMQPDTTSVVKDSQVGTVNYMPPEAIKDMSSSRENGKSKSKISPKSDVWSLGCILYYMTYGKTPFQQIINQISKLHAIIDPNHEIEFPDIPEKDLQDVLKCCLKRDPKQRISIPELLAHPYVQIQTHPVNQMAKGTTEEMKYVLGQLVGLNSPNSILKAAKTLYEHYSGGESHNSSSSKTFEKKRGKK

human PLK4 = molecular target: T2, human PLK4 (Homo sapiens, UniProt O00444); assay: PLK4 inhibition assay (indirect ELISA); assay type: biochemical; details: GST-PLK4 4 nM, 15 μM ATP; read-out: IC50 Ranges PLK4
T2 construct: amino terminal GST fusion of residues 1-391 of human PLK4; made in house; host or cells: E. coli
T2 sequence (O00444 1-391): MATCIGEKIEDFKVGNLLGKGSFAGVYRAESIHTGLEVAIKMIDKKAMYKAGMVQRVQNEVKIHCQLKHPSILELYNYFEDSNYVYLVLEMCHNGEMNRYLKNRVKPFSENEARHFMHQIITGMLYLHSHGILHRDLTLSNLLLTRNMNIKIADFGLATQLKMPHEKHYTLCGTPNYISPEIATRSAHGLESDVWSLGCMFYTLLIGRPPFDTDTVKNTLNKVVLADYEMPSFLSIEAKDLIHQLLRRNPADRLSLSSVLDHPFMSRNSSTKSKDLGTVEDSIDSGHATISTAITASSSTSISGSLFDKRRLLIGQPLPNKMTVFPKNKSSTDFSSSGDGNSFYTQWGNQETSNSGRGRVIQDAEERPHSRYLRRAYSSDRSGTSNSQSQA
Protocol: Active PLK4 was purified from an E. coli expression system as an amino terminal GST fusion of residues 1-391 of human PLK4. The protein was purified from clarified cell extracts after induction at 15° C. overnight using glutathione sepharose, gel permeation chromatography, and ion exchange (Resource Q). The resulting protein was dephosphorylated with lambda phosphatase (NEB cat#P0753), and resolved from the phosphatase using gluthione sepharose. The dephosphorylated GST-PLK4 was stored in aliquots at −80° C. until use.
PLK4 activity was measured using an indirect ELISA detection system. GST-PLK4 (4 nM) was incubated in the presence of 15 μM ATP (Sigma cat#A7699), 50 mM HEPES-Na^2+ pH 7.5, 10 mM MgCl2, 0.01% Brij 35 (Sigma cat#03-3170), in a 96 well microtitre plate pre-coated with MBP (Millipore cat#30-011). The reaction was allowed to proceed for 30 minutes, followed by 5 washes of the plate with Wash Buffer (phosphate buffered saline supplemented with 0.2% Tween 20), and incubation for 30 minutes with a 1:3000 dilution of primary antibody (Cell Signaling cat#9381). The plate was washed 5 times with Wash Buffer, incubated for 30 minutes in the presence of secondary antibody coupled to horse radish peroxidase (BioRad cat#1721019, 1:3000 concentration), washed an additional 5 times with Wash Buffer, and incubated in the presence of TMB substrate (Sigma cat#T0440). The colourimetric reaction was allowed to continue for 5 minutes, followed by addition of stop solution (0.5 N sulphuric acid), and quantified by detection at 450 nm with either a monochromatic or filter based plate reader (Molecular Devices M5 or Beckman DTX880, respectively).
Compound inhibition was determined at either a fixed concentration (10 μM) or at a variable inhibitor concentration (typically 0.5 μM to 0.001 μM in a 10 point dose response titration). Compounds were pre-incubated in the presence of enzyme for 15 minutes prior to addition of ATP and the activity remaining quantified using the above described activity assay. The % Inhibition of a compound was determined using the following formula; % Inhibition=100×(1-(experimental value−background value)/(high activity control−background value)). The IC50 value was determined using a non-linear 4 point logistic curve fit (XLfit4, IDBS) with the formula; (A+(B/(1+((x/C)̂D)))), where A=background value, B=range, C=inflection point, D=curve fit parameter.

[1] = system: HCT116 colon cancer cells; assay: Cell growth inhibition, Sulforhodamine B assay, HCT116; assay type: cell-based; details: Homo sapiens, HCT-116, 120 h, 5 days culture, SRB assay, read-out: Cell Line GI50 Range HCT116
[2] = system: MDA-MB-231 breast cancer cells; assay: Cell growth inhibition, Sulforhodamine B assay, MDA-MB-231; assay type: cell-based; details: Homo sapiens, 120 h, 5 days culture, SRB assay, read-out: Cell Line GI50 Range MDA-MB-231
[3] = system: MDA-MB-468 breast cancer cells; assay: Cell growth inhibition, Sulforhodamine B assay, MDA-MB-468; assay type: cell-based; details: Homo sapiens, 120 h, 5 days culture, SRB assay, read-out: Cell Line GI50 Range MDA-MB-468
Aurora B = molecular target: T3, Aurora B (Homo sapiens, UniProt Q96GD4); assay: Aurora B inhibition assay (Z-Lyte); assay type: biochemical; details: 28 nM Aurora B, 128 μM ATP; read-out: IC50 Ranges Aurora B
T3 construct: purchased Invitrogen PV3970
Protocol: Aurora B inhibition was determined using the Z-Lyte assay kit from Invitrogen. The assay was performed using the recommended manufacturer's instructions with 128 μM ATP and 28 nM Aurora B (Invitrogen cat #PV3970). The % inhibition values were determined according to the manufacturer's directions and IC50 values were obtained using a non-linear 4 point logistic curve fit (XLfit4, IDBS)

T3 sequence (Q96GD4 whole entry): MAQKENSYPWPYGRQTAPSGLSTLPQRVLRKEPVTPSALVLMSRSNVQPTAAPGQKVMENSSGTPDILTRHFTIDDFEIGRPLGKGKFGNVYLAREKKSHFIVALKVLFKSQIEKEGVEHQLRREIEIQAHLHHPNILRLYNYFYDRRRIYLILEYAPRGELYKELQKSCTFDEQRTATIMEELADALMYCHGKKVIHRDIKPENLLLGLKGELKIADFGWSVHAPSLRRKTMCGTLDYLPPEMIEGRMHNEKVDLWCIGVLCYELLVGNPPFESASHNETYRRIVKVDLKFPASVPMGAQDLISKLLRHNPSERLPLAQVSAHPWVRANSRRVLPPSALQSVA

Row | IC50 (human TTK) [µM] | IC50 (human PLK4) [µM] | GI50 [1] [µM] | GI50 [2] [µM] | GI50 [3] [µM] | IC50 (Aurora B) [µM] | SMILES
1 | ≤ 5 | ≤ 5 | ≤ 5 | ≤ 5 | ≤ 5 | 5 to 50 | O=C(Nc1ccc2[nH]nc(-c3cccc(CN4CCOCC4)c3)c2c1)C(c1ccsc1)N1CCCC1 (stereo not drawn) [Example A1, N-(3-(3-(morpholinomethyl)phenyl)-1H-indazol-5-yl)-2-(pyrrolidin-1-yl)-2-(thiophen-3-yl)acetamide]
2 | ≤ 5 | ≤ 5 | ≤ 5 | ≤ 5 | ≤ 5 | ≤ 5 | CN1CCN(c2ccc(-c3n[nH]c4ccc(NC(=O)C(c5ccsc5)N5CCCC5)cc34)cc2)CC1 (stereo not drawn) [Example A2, N-(3-(4-(4-methylpiperazin-1-yl)phenyl)-1H-indazol-5-yl)-2-(pyrrolidin-1-yl)-2-(thiophen-3-yl)acetamide]
3 | ≤ 5 | ≤ 5 | ≤ 5 | ≤ 5 | ≤ 5 | ≤ 5 | O=C(Nc1ccc2[nH]nc(-c3ccc(CN4CCOCC4)cc3)c2c1)C(c1ccsc1)N1CCCC1 (stereo not drawn) [Example A3, N-(3-(4-(morpholinomethyl)phenyl)-1H-indazol-5-yl)-2-(pyrrolidin-1-yl)-2-(thiophen-3-yl)acetamide]
4 | ≤ 5 | ≤ 5 | ≤ 5 | ≤ 5 | ≤ 5 | ≤ 5 | O=C(Nc1ccc2[nH]nc(-c3ccc(CCN4CCOCC4)cc3)c2c1)C(c1ccsc1)N1CCCC1 (stereo not drawn) [Example A6, N-(3-(4-(2-morpholinoethyl)phenyl)-1H-indazol-5-yl)-2-(pyrrolidin-1-yl)-2-(thiophen-3-yl)acetamide]
5 | ≤ 5 | ≤ 5 | ≤ 5 | ≤ 5 | ≤ 5 | ≤ 5 | COc1cc(-c2n[nH]c3ccc(NC(=O)C(c4ccsc4)N4CCCC4)cc23)ccc1N1CCN(C)CC1 (stereo not drawn) [Example A10, N-(3-(3-methoxy-4-(4-methylpiperazin-1-yl)phenyl)-1H-indazol-5-yl)-2-(pyrrolidin-1-yl)-2-(thiophen-3-yl)acetamide]
6 | ≤ 5 | ≤ 5 | ≤ 5 | ≤ 5 | ≤ 5 | – | O=C(Nc1ccc2[nH]nc(-c3ccc4c(c3)OCO4)c2c1)C(c1ccsc1)N1CCCC1 (stereo not drawn) [Example A14, N-(3-(benzo[d][1,3]dioxol-5-yl)-1H-indazol-5-yl)-2-(pyrrolidin-1-yl)-2-(thiophen-3-yl)acetamide]
7 | ≤ 5 | ≤ 5 | ≤ 5 | ≤ 5 | ≤ 5 | – | O=C(Nc1ccc2[nH]nc(-c3ccc4c(c3)OCCO4)c2c1)C(c1ccsc1)N1CCCC1 (stereo not drawn) [Example A15, N-(3-(2,3-dihydrobenzo[b][1,4]dioxin-6-yl)-1H-indazol-5-yl)-2-(pyrrolidin-1-yl)-2-(thiophen-3-yl)acetamide]
8 | ≤ 5 | ≤ 5 | ≤ 5 | ≤ 5 | ≤ 5 | ≤ 5 | CN1CCc2cc(-c3n[nH]c4ccc(NC(=O)C(c5ccsc5)N5CCCC5)cc34)ccc21 (stereo not drawn) [Example A16, N-(3-(1-methylindolin-5-yl)-1H-indazol-5-yl)-2-(pyrrolidin-1-yl)-2-(thiophen-3-yl)acetamide]

The next lines start with the molecule.

Row | SMILES | IC50 (human TTK) [µM] | IC50 (human PLK4) [µM] | GI50 [1] [µM] | GI50 [2] [µM] | GI50 [3] [µM] | IC50 (Aurora B) [µM]
9 | CN(C)CCOc1ccc(-c2n[nH]c3ccc(NC(=O)C(c4ccsc4)N4CCCC4)cc23)cc1 (stereo not drawn) [Example A5, N-(3-(4-(2-(dimethylamino)ethoxy)phenyl)-1H-indazol-5-yl)-2-(pyrrolidin-1-yl)-2-(thiophen-3-yl)acetamide] | ≤ 5 | ≤ 5 | ≤ 5 | ≤ 5 | ≤ 5 | 5 to 50
10 | COc1cc(-c2n[nH]c3ccc(NC(=O)C(c4ccsc4)N4CCCC4)cc23)ccc1OC1CCNCC1 (stereo not drawn) [Example A8, N-(3-(3-methoxy-4-(piperidin-4-yloxy)phenyl)-1H-indazol-5-yl)-2-(pyrrolidin-1-yl)-2-(thiophen-3-yl)acetamide] | ≤ 5 | ≤ 5 | ≤ 5 | ≤ 5 | ≤ 5 | ≤ 5
11 | CN1CCN(c2ccc(-c3n[nH]c4ccc(NC(=O)C5CCCc6ccccc65)cc34)cc2)CC1 (stereo not drawn) [Example A11, N-(3-(4-(4-methylpiperazin-1-yl)phenyl)-1H-indazol-5-yl)-1,2,3,4-tetrahydronaphthalene-1-carboxamide] | ≤ 5 | ≤ 5 | ≤ 5 | ≤ 5 | ≤ 5 | ≤ 5
12 | COc1cc(-c2n[nH]c3ccc(C(=O)NC(c4ccccc4)C4CC4)cc23)ccc1OC1CCNCC1 (stereo not drawn) [Example A13, N-(cyclopropyl(phenyl)methyl)-3-(3-methoxy-4-(piperidin-4-yloxy)phenyl)-1H-indazole-5-carboxamide] | ≤ 5 | ≤ 5 | ≤ 5 | ≤ 5 | ≤ 5 | ≤ 5
13 | O=C(Nc1ccc2[nH]nc(-c3ccc(CN4CCOCC4)cc3)c2c1)C1CCCc2ccccc21 (stereo not drawn) [Example A23, N-(3-(4-(morpholinomethyl)phenyl)-1H-indazol-5-yl)-1,2,3,4-tetrahydronaphthalene-1-carboxamide] | ≤ 5 | ≤ 5 | ≤ 5 | 5 to 20 | ≤ 5 | –
